In ChEMBL document CHEMBL3885861, “Open TG-GATES”:

Species: Rattus norvegicus
Assay: Open TG-GATES - Regimen: Single
Type: toxicity, organism-based, Sprague-Dawley
Set-up: regimen Single, gender Male, age 6 weeks
Settings: in vivo, po, 0 mg/kg, route gavage, dose level Control; for APTT / Bas / Eos / Fbg / Hb / Ht / Lym / MCH / MCHC / MCV / Mono / Neu / PT / Plat / RBC / Ret / WBC: tissue Blood; for KIDNEY_L / KIDNEY_R / KIDNEY_TOTAL: tissue Kidney; for LIVER: tissue Liver; for A/G / ALP / ALT / AST / BUN / CRE / Ca / Cl / DBIL / GLC / IP / K / LDH / Na / PL / RALB / TBIL / TC / TG / TP / gamma-GTP: tissue Plasma

In the case of CN1C(C(=O)Nc2ccccn2)=C(O)c2sc(Cl)cc2S1(=O)=O [LORNOXICAM], the TERMINAL_BW (9 h) is reported as 218.6 g, the APTT (9 h) is reported as 20.3 s and the Bas (9 h) is reported as 0.8%. The Eos (9 h) was 0.8%, the Fbg (9 h) was 230.6 mg/dL and the Hb (9 h) was 13.3 g/dL. It also gave a Ht (9 h) of 39.8%, a Lym (9 h) of 74.4% and an MCH (9 h) of 20.9 pg. The MCHC (9 h) was 33.4%, the MCV (9 h) was 62.7 fL and the Mono (9 h) was 3.2%. The Neu (9 h) was 20.4%, the PT (9 h) was 12.5 s and the Plat (9 h) was 119.2 x10_4/uL. The RBC (9 h) was 634.2 x10_4/ul, the Ret (9 h) was 7.6% and the WBC (9 h) was 126.9 x10_2/uL. It also gave a KIDNEY_L (9 h) of 1 g, a KIDNEY_R (9 h) of 1 g and a KIDNEY_TOTAL (9 h) of 1.9 g. The LIVER (9 h) was 9.3 g, the A/G (9 h) was 1.7 and the ALP (9 h) was 766.8 IU/L. The ALT (9 h) was 33.2 IU/L, the AST (9 h) was 65.4 IU/L and the BUN (9 h) was 9.8 mg/dL. The CRE (9 h) was 0.3 mg/dL, the Ca (9 h) was 10.5 mg/dL and the Cl (9 h) was 103.6 meq/L. The DBIL (9 h) was 0.076 mg/dL, the GLC (9 h) was 197.8 mg/dL and the IP (9 h) was 9.6 mg/dL. The K (9 h) was 3.8 meq/L, the LDH (9 h) was 162.2 IU/L and the Na (9 h) was 142.2 meq/L. The PL (9 h) was 136.8 mg/dL, the RALB (9 h) was 3.5 g/dL and the TBIL (9 h) was 0.1 mg/dL. The TC (9 h) was 75.2 mg/dL, the TG (9 h) was 60.6 mg/dL and the TP (9 h) was 5.6 g/dL. For the same compound, the gamma-GTP (9 h) was 1.2 IU/L, the TERMINAL_BW (24 h) was 238.4 g and the APTT (24 h) was 19.9 s. It also gave a Bas (24 h) of 0.2%, an Eos (24 h) of 1% and a Fbg (24 h) of 225.8 mg/dL. For the same compound, the Hb (24 h) was 13.5 g/dL, the Ht (24 h) was 40.7% and the Lym (24 h) was 80%. The MCH (24 h) was 20.9 pg, the MCHC (24 h) was 33.3% and the MCV (24 h) was 62.6 fL. For the same compound, the Mono (24 h) was 3.2%, the Neu (24 h) was 15.2% and the PT (24 h) was 11.6 s. The Plat (24 h) was 133.9 x10_4/uL, the RBC (24 h) was 649.4 x10_4/ul and the Ret (24 h) was 6.8%. The WBC (24 h) was 101.7 x10_2/uL, the KIDNEY_L (24 h) was 1 g and the KIDNEY_R (24 h) was 1 g. It also gave a KIDNEY_TOTAL (24 h) of 2 g, an LIVER (24 h) of 11.3 g and an A/G (24 h) of 1.6. The ALP (24 h) was 874.6 IU/L, the ALT (24 h) was 35.2 IU/L and the AST (24 h) was 65.8 IU/L. The BUN (24 h) was 14.8 mg/dL, the CRE (24 h) was 0.4 mg/dL and the Ca (24 h) was 10.8 mg/dL. For the same compound, the Cl (24 h) was 103.8 meq/L, the DBIL (24 h) was 0.1 mg/dL and the GLC (24 h) was 218 mg/dL. It also gave an IP (24 h) of 7.3 mg/dL, a K (24 h) of 4 meq/L and an LDH (24 h) of 177.6 IU/L. For the same compound, the Na (24 h) was 141.4 meq/L, the PL (24 h) was 138.4 mg/dL and the RALB (24 h) was 3.5 g/dL. The TBIL (24 h) was 0.2 mg/dL, the TC (24 h) was 69.2 mg/dL and the TG (24 h) was 101.2 mg/dL. It also gave a TP (24 h) of 5.6 g/dL and a gamma-GTP (24 h) of 1 IU/L.
